Experiments:
[1] = system: GLXMAW (Soybean, Williams); test: Preemergence herbicidal evaluation; assay type: in vivo, Glycine max, (L.) Merr. cv Williams; conditions: rated 4-5 weeks after treatment
Outline: (§1)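 Scores use a 0–9 visual scale covering stand, vigor, malformation, size and chlorosis relative to controls, rated four to five weeks after treatment. Before emergence, soil-planted seeds were sprayed with compound in aqueous acetone at roughly 0.0156–0.500 kg/ha and held in the greenhouse.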

[2] = system: IPOHE (Morningglory, Ivyleaf); test: Postemergence herbicidal evaluation; assay type: in vivo, Ipomoea hederacea; conditions: postemergence
Outline: (§2)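 Herbicidal effect was judged by eye on a 0–9 scale covering stand, vigor, deformity, size and chlorosis, compared with controls, four to five weeks after seedlings about two weeks old were sprayed (40 psi, ~0.0156–0.500 kg/ha).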

[3] = system: ABUTH (Velvetleaf); test: Postemergence herbicidal evaluation; assay type: in vivo, Abutilon theophrasti; conditions: postemergence
Outline: as §2

[4] = system: ECHCG (Barnyardgrass); test: Preemergence herbicidal evaluation; assay type: in vivo, Echinochloa crus-galli; conditions: rated 4-5 weeks after treatment
Outline: as §1

[5] = system: ZEAMX (Corn, Field); test: Preemergence herbicidal evaluation; assay type: in vivo, Zea mays; conditions: rated 4-5 weeks after treatment
Outline: as §1

[6] = system: ORYSAT (Rice, Tebonnet); test: Postemergence herbicidal evaluation; assay type: in vivo, Oryza sativa, (L.) Tebonnet; conditions: postemergence
Outline: as §2

[7] = system: ABUTH (Velvetleaf); test: Preemergence herbicidal evaluation; assay type: in vivo, Abutilon theophrasti; conditions: rated 4-5 weeks after treatment
Outline: as §1

[8] = system: ECHCG (Barnyardgrass); test: Postemergence herbicidal evaluation; assay type: in vivo, Echinochloa crus-galli; conditions: postemergence
Outline: as §2

[9] = system: CHEAL (Lambsquarters, Common); test: Postemergence herbicidal evaluation; assay type: in vivo, Chenopodium album; conditions: postemergence
Outline: as §2

[10] = system: CHEAL (Lambsquarters, Common); test: Preemergence herbicidal evaluation; assay type: in vivo, Chenopodium album; conditions: rated 4-5 weeks after treatment
Outline: as §1

[11] = system: SETVI (Foxtail, Green); test: Postemergence herbicidal evaluation; assay type: in vivo, Setaria viridis; conditions: postemergence
Outline: as §2

[12] = system: TRZAWR (Wheat, Winter, cv Riband); test: Preemergence herbicidal evaluation; assay type: in vivo, Triticum aestivum; conditions: rated 4-5 weeks after treatment
Outline: as §1

[13] = system: IPOHE (Morningglory, Ivyleaf); test: Preemergence herbicidal evaluation; assay type: in vivo, Ipomoea hederacea; conditions: rated 4-5 weeks after treatment
Outline: as §1

[14] = system: CASOB (Sicklepod); test: Preemergence herbicidal evaluation; assay type: in vivo, Cassia obtusifolia; conditions: rated 4-5 weeks after treatment
Outline: as §1

[15] = system: ZEAMX (Corn, Field); test: Postemergence herbicidal evaluation; assay type: in vivo, Zea mays; conditions: postemergence
Outline: as §2

SMILES: Cn1c(C(F)(F)F)cc(=O)n(-c2cc(N=C3SCC(=O)N3Cc3ccco3)c(Cl)cc2F)c1=O [Compound 122, 3-{4-Chloro-2-fluoro-5-[(3-furfuryl-4-oxo-2-thiazolidinylidene)amino]phenyl}-1-methyl-6-(trifluoromethyl)-2,4(1H,3H)-pyrimidinedione]
- Preemergence herbicidal rating GLXMAW ([1]; rate 0.0156 kg/ha): 0.0
- Preemergence herbicidal rating GLXMAW ([1]; rate 0.0313 kg/ha): 0.0
- Preemergence herbicidal rating GLXMAW ([1]; rate 0.0625 kg/ha): 1.0
- Preemergence herbicidal rating GLXMAW ([1]; rate 0.1250 kg/ha): 0.0
- Preemergence herbicidal rating GLXMAW ([1]; rate 0.2500 kg/ha): 0.0
- Preemergence herbicidal rating GLXMAW ([1]; rate 0.5000 kg/ha): 0.0
- herbicidal rating IPOHE ([2]; rate 0.0156 kg/ha): 9.0
- herbicidal rating IPOHE ([2]; rate 0.0313 kg/ha): 9.0
- herbicidal rating IPOHE ([2]; rate 0.0625 kg/ha): 9.0
- herbicidal rating IPOHE ([2]; rate 0.1250 kg/ha): 9.0
- herbicidal rating ABUTH ([3]; rate 0.0156 kg/ha): 9.0
- herbicidal rating ABUTH ([3]; rate 0.0313 kg/ha): 9.0
- herbicidal rating ABUTH ([3]; rate 0.0625 kg/ha): 9.0
- herbicidal rating ABUTH ([3]; rate 0.1250 kg/ha): 9.0
- Preemergence herbicidal rating ECHCG ([4]; rate 0.0156 kg/ha): 0.0
- Preemergence herbicidal rating ECHCG ([4]; rate 0.0313 kg/ha): 0.0
- Preemergence herbicidal rating ECHCG ([4]; rate 0.0625 kg/ha): 0.0
- Preemergence herbicidal rating ECHCG ([4]; rate 0.1250 kg/ha): 0.0
- Preemergence herbicidal rating ECHCG ([4]; rate 0.2500 kg/ha): 0.0
- Preemergence herbicidal rating ECHCG ([4]; rate 0.5000 kg/ha): 1.0
- Preemergence herbicidal rating ZEAMX ([5]; rate 0.0156 kg/ha): 0.0
- Preemergence herbicidal rating ZEAMX ([5]; rate 0.0313 kg/ha): 0.0
- Preemergence herbicidal rating ZEAMX ([5]; rate 0.0625 kg/ha): 0.0
- Preemergence herbicidal rating ZEAMX ([5]; rate 0.1250 kg/ha): 0.0
- Preemergence herbicidal rating ZEAMX ([5]; rate 0.2500 kg/ha): 0.0
- Preemergence herbicidal rating ZEAMX ([5]; rate 0.5000 kg/ha): 1.0
- herbicidal rating ORYSAT ([6]; rate 0.0156 kg/ha): 3.5
- herbicidal rating ORYSAT ([6]; rate 0.0313 kg/ha): 3.5
- herbicidal rating ORYSAT ([6]; rate 0.0625 kg/ha): 3.5
- herbicidal rating ORYSAT ([6]; rate 0.1250 kg/ha): 5.0
- Preemergence herbicidal rating ABUTH ([7]; rate 0.0156 kg/ha): 0.0
- Preemergence herbicidal rating ABUTH ([7]; rate 0.0313 kg/ha): 0.0
- Preemergence herbicidal rating ABUTH ([7]; rate 0.0625 kg/ha): 4.0
- Preemergence herbicidal rating ABUTH ([7]; rate 0.1250 kg/ha): 9.0
- Preemergence herbicidal rating ABUTH ([7]; rate 0.2500 kg/ha): 9.0
- Preemergence herbicidal rating ABUTH ([7]; rate 0.5000 kg/ha): 9.0
- herbicidal rating ECHCG ([8]; rate 0.0156 kg/ha): 2.0
- herbicidal rating ECHCG ([8]; rate 0.0313 kg/ha): 3.0
- herbicidal rating ECHCG ([8]; rate 0.0625 kg/ha): 4.0
- herbicidal rating ECHCG ([8]; rate 0.1250 kg/ha): 5.0
- herbicidal rating CHEAL ([9]; rate 0.0156 kg/ha): 6.0
- herbicidal rating CHEAL ([9]; rate 0.0313 kg/ha): 9.0
- herbicidal rating CHEAL ([9]; rate 0.0625 kg/ha): 9.0
- herbicidal rating CHEAL ([9]; rate 0.1250 kg/ha): 9.0
- Preemergence herbicidal rating CHEAL ([10]; rate 0.0156 kg/ha): 9.0
- Preemergence herbicidal rating CHEAL ([10]; rate 0.0313 kg/ha): 9.0
- Preemergence herbicidal rating CHEAL ([10]; rate 0.0625 kg/ha): 7.0
- Preemergence herbicidal rating CHEAL ([10]; rate 0.1250 kg/ha): 9.0
- Preemergence herbicidal rating CHEAL ([10]; rate 0.2500 kg/ha): 9.0
- Preemergence herbicidal rating CHEAL ([10]; rate 0.5000 kg/ha): 9.0
- herbicidal rating SETVI ([11]; rate 0.0156 kg/ha): 6.0
- herbicidal rating SETVI ([11]; rate 0.0313 kg/ha): 7.0
- herbicidal rating SETVI ([11]; rate 0.0625 kg/ha): 9.0
- herbicidal rating SETVI ([11]; rate 0.1250 kg/ha): 9.0
- Preemergence herbicidal rating TRZAWR ([12]; rate 0.0156 kg/ha): 0.0
- Preemergence herbicidal rating TRZAWR ([12]; rate 0.0313 kg/ha): 0.0
- Preemergence herbicidal rating TRZAWR ([12]; rate 0.0625 kg/ha): 0.0
- Preemergence herbicidal rating TRZAWR ([12]; rate 0.1250 kg/ha): 0.0
- Preemergence herbicidal rating TRZAWR ([12]; rate 0.2500 kg/ha): 0.0
- Preemergence herbicidal rating TRZAWR ([12]; rate 0.5000 kg/ha): 1.0
- Preemergence herbicidal rating IPOHE ([13]; rate 0.0156 kg/ha): 0.0
- Preemergence herbicidal rating IPOHE ([13]; rate 0.0313 kg/ha): 0.0
- Preemergence herbicidal rating IPOHE ([13]; rate 0.0625 kg/ha): 0.0
- Preemergence herbicidal rating IPOHE ([13]; rate 0.1250 kg/ha): 2.0
- Preemergence herbicidal rating IPOHE ([13]; rate 0.2500 kg/ha): 1.0
- Preemergence herbicidal rating IPOHE ([13]; rate 0.5000 kg/ha): 1.0
- Preemergence herbicidal rating CASOB ([14]; rate 0.0156 kg/ha): 0.0
- Preemergence herbicidal rating CASOB ([14]; rate 0.0313 kg/ha): 0.0
- Preemergence herbicidal rating CASOB ([14]; rate 0.0625 kg/ha): 0.0
- Preemergence herbicidal rating CASOB ([14]; rate 0.1250 kg/ha): 0.0
- Preemergence herbicidal rating CASOB ([14]; rate 0.2500 kg/ha): 0.0
- Preemergence herbicidal rating CASOB ([14]; rate 0.5000 kg/ha): 3.0
- herbicidal rating ZEAMX ([15]; rate 0.0156 kg/ha): 4.5
- herbicidal rating ZEAMX ([15]; rate 0.0313 kg/ha): 7.0
- herbicidal rating ZEAMX ([15]; rate 0.0625 kg/ha): 7.0
- herbicidal rating ZEAMX ([15]; rate 0.1250 kg/ha): 7.0
